System: human subject
Assay: Post-exercise recovery (whole-body oxygen consumption)
Type: in vivo
Method: The administration of cinnamaldehyde promotes post-exercise recovery by reducing the time for a subject's oxygen consumption level (VO2) to return to his or her pre-exercise level when cinnamaldehyde is administered after exercise. In these implementations, cinnamaldehyde is administered with a protein and/or a carbohydrate. The protein may be any protein commonly used in nutritional supplement manufacture, which includes but is not limited to whey protein, milk protein, casein protein, beef protein, soy protein, hemp protein, rice protein, canola protein, spirulina, and pea protein. The carbohydrate may by any commonly used form of simple or complex carbohydrates used in the manufacture of dietary supplements, which includes but is not limited glucose, fructose, dextrose, palatinose, maltodextrin, various starches, activated barley, waxy maize, cereals, and oats. In a preferred embodiment, cinnamaldehyde is administered to the human subject within two hours of completion of exercise, for example within 90 minutes, 60 minutes, or 30 minutes of completion of exercise.
The effect of cinnamaldehyde on promoting post-exercise exercise is best when cinnamaldehyde is administered within an hour after exercise and its effect is reduced when administered two hours after exercise. The effect of cinnamaldehyde on promoting post-exercise exercise is enhanced when it is administered with a protein and/or a carbohydrate (for example, a combination of whey powder and glucose).

`O=CC=Cc1ccccc1` [cinnamaldehyde] was tested, and the “time for whole-body oxygen consumption to return to pre-exercise levels” value (administered after the human subject completed an exercise session) was “reduced the time”, the “effect on promoting post-exercise recovery” value (shortened to “effect”) (administered two hours after exercise) was “reduced” and the “effect” value (administered with a protein and/or a carbohydrate (e.g. whey powder and glucose)) was “enhanced”. The “effect” value (administered within an hour after exercise) was “best”.
